Assay results reported in PubChem BioAssay AID652002 (Sanford-Burnham Center for Chemical Genomics, 2013).
The source made the active and inactive calls. The rule behind the calls is not given here.

Assays:
[1] = TRAIL sensitizers in caspase-8 expressing neuroblastoma cells, dose response, NB7 cells plus caspase-8, luminescence, panel (AID 652002); settings: NB7 neuroblastoma +caspase-8, no TRAIL, compound-alone cytotoxicity counter-screen, luminescence viability, NB7+Caspase-8
[2] = target: NB7+Caspase-8; experiment: as above; settings: NB7 neuroblastoma +caspase-8, TRAIL sensitization, luminescence viability, with TRAIL
[3] = target: Tumor necrosis factor receptor superfamily member 10B (Homo sapiens) (UniProt O14763); experiment: as above; settings: NB7 neuroblastoma +caspase-8, TRAIL sensitization, luminescence viability; NB7+Caspase-8; with TRAIL, mean of runs
Tumor necrosis factor receptor superfamily member 10B (Homo sapiens), sequence (O14763 whole entry, looked up): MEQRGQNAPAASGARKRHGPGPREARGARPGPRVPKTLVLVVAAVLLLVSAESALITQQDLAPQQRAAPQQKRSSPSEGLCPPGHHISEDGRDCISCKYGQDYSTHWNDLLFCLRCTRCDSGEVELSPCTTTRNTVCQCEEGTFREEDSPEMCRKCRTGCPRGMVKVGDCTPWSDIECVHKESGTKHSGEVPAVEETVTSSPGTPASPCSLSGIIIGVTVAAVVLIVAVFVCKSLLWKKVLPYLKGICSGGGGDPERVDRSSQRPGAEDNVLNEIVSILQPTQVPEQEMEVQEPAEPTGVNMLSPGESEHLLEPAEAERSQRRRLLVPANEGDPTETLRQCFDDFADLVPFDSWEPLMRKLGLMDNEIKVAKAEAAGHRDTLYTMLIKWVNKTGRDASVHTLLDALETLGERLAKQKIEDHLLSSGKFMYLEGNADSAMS

[4] = run 1, single replicate panel EC50
[5] = run 2, single replicate panel EC50

CCOC(=O)[C@]12Cc3cc4ccccc4cc3[C@H]1N(Cc1ccccc1)C(=O)c1ccccc12
EC50 ([1]; mean of runs): > 12.5 µM (inactive) | EC50 [1, 4]: > 12.5 µM | EC50 [1, 5]: > 12.5 µM | EC50 [2, 4]: > 12.5 µM | EC50 [2, 5]: > 12.5 µM | EC50 [3]: > 12.5 µM (inactive)

COc1cc(SC#N)ccc1N=Cc1c(C)[nH]n(-c2ccc(Cl)cc2)c1=O
EC50 ([1]; mean of runs): > 12.5 µM (inactive) | EC50 [1, 4]: > 12.5 µM | EC50 [1, 5]: > 12.5 µM | EC50 [2, 4]: > 12.5 µM | EC50 [2, 5]: > 12.5 µM | EC50 [3]: > 12.5 µM (inactive)

CCOC(=O)[C@]12Cc3cc4ccccc4cc3[C@H]1N(Cc1ccccc1)C(=O)c1cc(OC)ccc12
EC50 ([1]; mean of runs): > 12.5 µM (inactive) | EC50 [1, 4]: > 12.5 µM | EC50 [1, 5]: > 12.5 µM | EC50 [2, 4]: > 12.5 µM | EC50 [2, 5]: > 12.5 µM | EC50 [3]: > 12.5 µM (inactive)

Cc1ccnc(NC(=O)Nc2ccc3c(c2)OCO3)c1
EC50 ([1]; mean of runs): > 12.5 µM (inactive) | EC50 [1, 4]: > 12.5 µM | EC50 [1, 5]: > 12.5 µM | EC50 [2, 4]: > 12.5 µM | EC50 [2, 5]: > 12.5 µM | EC50 [3]: > 12.5 µM (inactive)

Cc1cc(NC(=O)c2cncc(Br)c2)ccc1NC(=O)c1cc2ccccc2o1
EC50 ([1]; mean of runs): > 12.5 µM (inactive) | EC50 [1, 4]: > 12.5 µM | EC50 [1, 5]: > 12.5 µM | EC50 [2, 4]: > 12.5 µM | EC50 [2, 5]: 9.86 µM | EC50 [3]: inactive

Cc1ccc2c(c1)-c1nc3ccccc3cc1C2=NC1CCCCC1
EC50 ([1]; mean of runs): > 12.5 µM (inactive) | EC50 [1, 4]: > 12.5 µM | EC50 [1, 5]: > 12.5 µM | EC50 [2, 4]: > 12.5 µM | EC50 [2, 5]: 7.45 µM | EC50 [3]: inactive

Nc1ccccc1C(=O)NN=Cc1cccc([N+](=O)[O-])c1
EC50 ([1]; mean of runs): inactive | EC50 [1, 4]: > 12.5 µM | EC50 [1, 5]: 9.8 µM | EC50 [2, 4]: > 12.5 µM | EC50 [2, 5]: 7.52 µM | EC50 [3]: inactive

O=C(Nc1ccc(Br)cc1F)c1ccc2c(c1)OCCO2
EC50 ([1]; mean of runs): inactive | EC50 [1, 4]: > 12.5 µM | EC50 [1, 5]: 11.2 µM | EC50 [2, 4]: > 12.5 µM | EC50 [2, 5]: 12.5 µM | EC50 [3]: inactive

O=C(NCC1CCCO1)c1ccc2c3n(nc2c1)-c1ccccc1CO3 (stereo not given)
EC50 ([1]; mean of runs): > 12.5 µM (inactive) | EC50 [1, 4]: > 12.5 µM | EC50 [1, 5]: > 12.5 µM | EC50 [2, 4]: > 12.5 µM | EC50 [2, 5]: 8.3 µM | EC50 [3]: inactive

COC(=O)c1ccc(/C=C(\C#N)c2ccccn2)cc1
EC50 ([1]; mean of runs): > 12.5 µM (inactive) | EC50 [1, 4]: > 12.5 µM | EC50 [1, 5]: > 12.5 µM | EC50 [2, 4]: > 12.5 µM | EC50 [2, 5]: > 12.5 µM | EC50 [3]: > 12.5 µM (inactive)

COc1cccc(C(=O)Nc2ccc(C3CC3(Cl)Cl)cc2)c1 (stereo not given)
EC50 ([1]; mean of runs): > 12.5 µM (inactive) | EC50 [1, 4]: > 12.5 µM | EC50 [1, 5]: > 12.5 µM | EC50 [2, 4]: > 12.5 µM | EC50 [2, 5]: > 12.5 µM | EC50 [3]: > 12.5 µM (inactive)

CCOC(=O)c1cnc2c(-c3ccccc3)cnn2c1N
EC50 ([1]; mean of runs): > 12.5 µM (inactive) | EC50 [1, 4]: > 12.5 µM | EC50 [1, 5]: > 12.5 µM | EC50 [2, 4]: > 12.5 µM | EC50 [2, 5]: > 12.5 µM | EC50 [3]: > 12.5 µM (inactive)

Cc1cc(-c2ccccc2)nc(Nc2nc3c(C)cccc3c(=O)[nH]2)n1
EC50 ([1]; mean of runs): > 12.5 µM (inactive) | EC50 [1, 4]: > 12.5 µM | EC50 [1, 5]: > 12.5 µM | EC50 [2, 4]: > 12.5 µM | EC50 [2, 5]: > 12.5 µM | EC50 [3]: > 12.5 µM (inactive)

Cc1onc(-c2c(Cl)cccc2Cl)c1C(=O)ONC(=O)c1ccccc1
EC50 ([1]; mean of runs): > 12.5 µM (inactive) | EC50 [1, 4]: > 12.5 µM | EC50 [1, 5]: > 12.5 µM | EC50 [2, 4]: > 12.5 µM | EC50 [2, 5]: > 12.5 µM | EC50 [3]: > 12.5 µM (inactive)

CCCC1(CCC)C(=O)NC(=NCc2ccccc2)NC1=O
EC50 ([1]; mean of runs): > 12.5 µM (inactive) | EC50 [1, 4]: > 12.5 µM | EC50 [1, 5]: > 12.5 µM | EC50 [2, 4]: > 12.5 µM | EC50 [2, 5]: > 12.5 µM | EC50 [3]: > 12.5 µM (inactive)

Cc1ccc(NC(=O)c2cc3ccccc3o2)nc1
EC50 ([1]; mean of runs): inactive | EC50 [1, 4]: 7.34 µM | EC50 [1, 5]: 11 µM | EC50 [2, 4]: > 12.5 µM | EC50 [2, 5]: 8.86 µM | EC50 [3]: inactive

COc1ccc2sc(-c3ccc(S(C)(=O)=O)cc3)c(C#Cc3cncn3C)c2c1
EC50 ([1]; mean of runs): > 12.5 µM (inactive) | EC50 [1, 4]: > 12.5 µM | EC50 [1, 5]: > 12.5 µM | EC50 [2, 4]: > 12.5 µM | EC50 [2, 5]: > 12.5 µM | EC50 [3]: > 12.5 µM (inactive)

C/C(=N\NC(=O)c1n[nH]c2c1CCC2)c1ccco1
EC50 ([1]; mean of runs): > 12.5 µM (inactive) | EC50 [1, 4]: > 12.5 µM | EC50 [1, 5]: > 12.5 µM | EC50 [2, 4]: > 12.5 µM | EC50 [2, 5]: > 12.5 µM | EC50 [3]: > 12.5 µM (inactive)

Cc1cccc2nc(=S)n(C(=O)c3ccco3)n12
EC50 ([1]; mean of runs): > 12.5 µM (inactive) | EC50 [1, 4]: > 12.5 µM | EC50 [1, 5]: > 12.5 µM | EC50 [2, 4]: > 12.5 µM | EC50 [2, 5]: > 12.5 µM | EC50 [3]: > 12.5 µM (inactive)

CC(C)C(=O)Nc1ccc(NC(=O)c2ccccn2)cn1
EC50 ([1]; mean of runs): inactive | EC50 [1, 4]: > 12.5 µM | EC50 [1, 5]: 11.6 µM | EC50 [2, 4]: > 12.5 µM | EC50 [2, 5]: 9.78 µM | EC50 [3]: inactive
